Laboratory results: US20100021918A1, “METHOD FOR ASSAYING ACTION OF ANTITUMOR AGENT USING SPLICING DEFECTS AS INDEX” (Eisai R&D Management Co., Ltd., priority 2007, published 2010)

System: peripheral blood mononuclear cells (PBMC)
Assay: Microarray analysis (3), dose-dependent intron expression in PBMC at 3, 10, 30 nM, Table 5
Type: cell-based, human
Experimental: PBMC was suspended in RPMI1640 medium (containing 10% FBS, penicillin, and streptomycin) to 5×10^6 cells/ml and 1 ml of the suspension was plated per well of a 24-well plate. Immediately, 111 μl of 10 times-concentrated (8E,12E,14E)-7-((4-cycloheptylpiperazin-1-yl)carbonyl)oxy-3,6,16,21-tetrahydroxy-6,10,12,16,20-pentamethyl-18,19-epoxytricosa-8,12,14-trien-11-olide was added to the well (six wells per each concentration tested). The cells were then cultured in an incubator with 5% carbon dioxide gas at 37° C. Three hours later, the supernatant was collected and centrifuged at 1500 rpm for five minutes. TRI reagent (SIGMA) (1 ml) was added to each well of the plate from which the supernatant was removed to harvest the cells, which was added to the centrifuged pellet to dissolve. RNA was purified in accordance with the protocol of TRI reagent. RNA was further purified using RNeasy (QIAGEN) and, in accordance with the protocol, DNaseI was added to the samples during the procedure. Absorbance at 260 nm was measured to quantify an amount of RNA.
Ribosomal RNA was removed from 1 μg of each total RNA of control cells (n=3) and cells with the treatment (n=3) using RiboMinus Human/Mouse Transcriptome Isolation Kit (Invitrogen). Single stranded cDNA synthesis, double stranded cDNA synthesis, cRNA synthesis, second single stranded cDNA synthesis, cDNA fragmentation, and cDNA labeling in order were carried out for total RNA from which ribosomal RNA was removed, using GeneChip Whole Transcript Sense Target Labeling and Control Reagents (Affymetrix) to make a cDNA probe. Subsequently, the cDNA probe was used for hybridization with Human Exon 1.0 ST Array (Affymetrix). The array was washed and stained, and luminescence intensity was measured by a scanner.
The expression level of the probe set and the gene was quantified by using Expression Console Ver. 1.0 (Affymetrix) with Summarization Method and Normalization Method being set to “Median polish as used in RMA” and “None”, respectively. The expression level of the probe was normalized with that of the gene.
Probe sets showing that the normalized change in the level expression of the probe set in the group with the treatment at 30 nM was more than 5 times; the expression level of the probe set and the gene in the group with the treatment at 30 nM was more than 100; and probe set annotation was “extended, full, free”, were picked out. Regression analysis was performed with the probe sets extracted for the control group, the group with the treatment at 3 nM, the group with the treatment at 10 nM, and the group with the treatment at 30 nM to determine a p and q value for the slope of regression formula. A gene containing the probe sets with the q value of less than 5% was determined as a candidate gene with increased expression level of the intron regions (Table 5).
In Table 5, for the gene evaluated, gene name (Gene Name), abbreviated name (Gene Symbol), accession number (Accession), alias name (Synonym), transcription cluster number in Human Exon 1.0 ST Array (Human Exon 1.0 ST Array Transcription Cluster ID), chromosome number (Chromosome), type of strand (Strand), start region (Start), stop region (Stop), and change in expression level per 1 nM (Fold Change/nM) were respectively shown.

Measured: Fold Change/nM

CCC(O)C(C)C1OC1CC(C)(O)/C=C/C=C(\C)C1OC(=O)CC(O)CCC(C)(O)C(OC(=O)N2CCN(C3CCCCCC3)CC2)/C=C/C1C (stereo not shown) [E7107, (8E,12E,14E)-7-((4-cycloheptylpiperazin-1-yl)carbonyl)oxy-3,6,16,21-tetrahydroxy-6,10,12,16,20-pentamethyl-18,19-epoxytricosa-8,12,14-trien-11-olide]
1.07 nM⁻¹: introns of gene ACSL1, regression over control, 3, 10, 30 nM | introns of gene BASP1, regression over control, 3, 10, 30 nM | introns of gene CD2, regression over control, 3, 10, 30 nM | introns of gene EIF2C2, regression over control, 3, 10, 30 nM | introns of gene GCH1, regression over control, 3, 10, 30 nM | introns of gene NFKB1, regression over control, 3, 10, 30 nM | introns of gene NUMB, regression over control, 3, 10, 30 nM | introns of gene PRKCE, regression over control, 3, 10, 30 nM | introns of gene PSMD3, regression over control, 3, 10, 30 nM | introns of gene QKI, regression over control, 3, 10, 30 nM
1.08 nM⁻¹: introns of gene ITGAV, regression over control, 3, 10, 30 nM
1.05 nM⁻¹: gene ABCC1, intron expression, 3, 10, 30 nM | gene ADAR introns, regression over control, 3, 10, 30 nM | gene AMPD3 // PPARA // TRMU // GTSE1, intron expression, 3, 10, 30 nM | gene ANKH introns, regression over control, 3, 10, 30 nM | gene ARF1 introns, regression over control, 3, 10, 30 nM | gene ARHGDIB introns, regression over control, 3, 10, 30 nM | gene ATP8A1 // PCLKC, intron expression, 3, 10, 30 nM | gene AUTS2, intron expression, 3, 10, 30 nM | gene BAT2D1, intron expression, 3, 10, 30 nM | gene BCL9L, intron expression, 3, 10, 30 nM | gene C3orf63, intron expression, 3, 10, 30 nM | gene C13orf18, intron expression, 3, 10, 30 nM | gene C22orf28, intron expression, 3, 10, 30 nM | gene CALR, intron expression, 3, 10, 30 nM | gene CAND1 introns, regression over control, 3, 10, 30 nM | gene CCND2 introns, regression over control, 3, 10, 30 nM | gene CDC2L5, intron expression, 3, 10, 30 nM | gene CEP170 // CEP170L, intron expression, 3, 10, 30 nM | gene CHST11, intron expression, 3, 10, 30 nM | gene DDEF1, intron expression, 3, 10, 30 nM | gene DDX3Y introns, regression over control, 3, 10, 30 nM | gene DDX18 // WNT8B, intron expression, 3, 10, 30 nM | gene DENND4A introns, regression over control, 3, 10, 30 nM | gene DPF2, intron expression, 3, 10, 30 nM | gene DRAM, intron expression, 3, 10, 30 nM | gene DUSP16, intron expression, 3, 10, 30 nM | gene EDD1, intron expression, 3, 10, 30 nM | gene EIF3S10, intron expression, 3, 10, 30 nM | gene EIF4A1 // SENP3, intron expression, 3, 10, 30 nM | gene FBXO11, intron expression, 3, 10, 30 nM | gene FNTA, intron expression, 3, 10, 30 nM | gene FOXK2, intron expression, 3, 10, 30 nM | gene FOXO3A, intron expression, 3, 10, 30 nM | gene GAK, intron expression, 3, 10, 30 nM | gene GDI1 introns, regression over control, 3, 10, 30 nM | gene GNA12, intron expression, 3, 10, 30 nM | gene GP5 // ZNF394, intron expression, 3, 10, 30 nM | gene GTF3C4 introns, regression over control, 3, 10, 30 nM | gene GTPBP4, intron expression, 3, 10, 30 nM | gene IDI1 introns, regression over control, 3, 10, 30 nM | gene IFNGR1 introns, regression over control, 3, 10, 30 nM | gene KIAA0226 introns, regression over control, 3, 10, 30 nM | gene KLF9 introns, regression over control, 3, 10, 30 nM | gene LDLR introns, regression over control, 3, 10, 30 nM | gene MAPK6, intron expression, 3, 10, 30 nM | gene MKI67IP introns, regression over control, 3, 10, 30 nM | gene MLL3 // ADAMTS2 // LRRK1 // BAGE3 introns, regression over control, 3, 10, 30 nM | gene MLLT3, intron expression, 3, 10, 30 nM | gene MTMR6 introns, regression over control, 3, 10, 30 nM | gene MYD88, intron expression, 3, 10, 30 nM | gene NFKB2, intron expression, 3, 10, 30 nM | gene NIPBL // NRBP1 introns, regression over control, 3, 10, 30 nM | gene NPAT, intron expression, 3, 10, 30 nM | gene NR3C1, intron expression, 3, 10, 30 nM | gene PAK2, intron expression, 3, 10, 30 nM | gene PJA2 introns, regression over control, 3, 10, 30 nM | gene PLEK, intron expression, 3, 10, 30 nM | gene PLEKHM1, intron expression, 3, 10, 30 nM | gene POLR3E introns, regression over control, 3, 10, 30 nM | gene PPP1CB, intron expression, 3, 10, 30 nM | gene PRKAR1A, intron expression, 3, 10, 30 nM | gene PRPF4B, intron expression, 3, 10, 30 nM | gene PSEN1, intron expression, 3, 10, 30 nM | gene PSMD11, intron expression, 3, 10, 30 nM | gene RANGAP1, intron expression, 3, 10, 30 nM | gene RARA, intron expression, 3, 10, 30 nM | gene RBM23 // C9orf102, intron expression, 3, 10, 30 nM | gene SETD5, intron expression, 3, 10, 30 nM | gene SF3B1, intron expression, 3, 10, 30 nM | gene SF3B2, intron expression, 3, 10, 30 nM | gene SFPQ, intron expression, 3, 10, 30 nM | gene SFRS2IP introns, regression over control, 3, 10, 30 nM | gene SFRS3, intron expression, 3, 10, 30 nM | gene SLFN11, intron expression, 3, 10, 30 nM | gene ST8SIA4 introns, regression over control, 3, 10, 30 nM | gene STX6, intron expression, 3, 10, 30 nM | gene SUPV3L1 introns, regression over control, 3, 10, 30 nM | gene THRAP1 introns, regression over control, 3, 10, 30 nM | gene TLR4, intron expression, 3, 10, 30 nM | gene TMEM1, intron expression, 3, 10, 30 nM | gene TMEM2, intron expression, 3, 10, 30 nM | gene TNFSF8, intron expression, 3, 10, 30 nM | gene TRAF3 introns, regression over control, 3, 10, 30 nM | gene UBXD2 introns, regression over control, 3, 10, 30 nM | gene USP4, intron expression, 3, 10, 30 nM | gene USP38, intron expression, 3, 10, 30 nM | gene USP47 introns, regression over control, 3, 10, 30 nM | gene YME1L1, intron expression, 3, 10, 30 nM | gene ZNF267, intron expression, 3, 10, 30 nM
